ChEMBL document CHEMBL3525953, “In vitro cytochrome P450-mediated metabolism of exemestane” (Drug Metab Dispos, 2011)

How the values were obtained:
Type in all cases: ADME
Cytochrome P450 2B6 [1] = target: T1, Cytochrome P450 2B6 (Homo sapiens, UniProt P20813); assay: Drug metabolism assessed as human recombinant CYP2B6-mediated 17-hydroexemestane formation at 10 uM after 10 mins by Michaelis-Menten saturation curve analysis; conditions: recombinant enzyme
T1 sequence (P20813 whole entry): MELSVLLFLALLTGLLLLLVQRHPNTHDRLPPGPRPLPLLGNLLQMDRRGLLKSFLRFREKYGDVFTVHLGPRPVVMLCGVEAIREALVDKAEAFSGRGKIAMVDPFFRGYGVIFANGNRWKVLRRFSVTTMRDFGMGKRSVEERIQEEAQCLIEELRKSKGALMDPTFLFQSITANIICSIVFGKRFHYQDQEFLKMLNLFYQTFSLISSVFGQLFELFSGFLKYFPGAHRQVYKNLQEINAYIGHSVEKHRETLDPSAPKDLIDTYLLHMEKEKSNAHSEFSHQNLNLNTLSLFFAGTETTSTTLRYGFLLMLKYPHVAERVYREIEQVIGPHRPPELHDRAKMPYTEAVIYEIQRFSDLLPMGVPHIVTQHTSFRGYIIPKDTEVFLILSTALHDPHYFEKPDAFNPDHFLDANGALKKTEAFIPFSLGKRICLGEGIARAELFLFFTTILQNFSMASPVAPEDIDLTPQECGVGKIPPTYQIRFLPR

Cytochrome P450 2A6 = target: T2, Cytochrome P450 2A6 (Homo sapiens, UniProt P11509); assay: Drug metabolism assessed as human recombinant CYP2A6-mediated 17-hydroexemestane formation rate per pmol of enzyme at 10 uM after 10 mins
T2 sequence (P11509 whole entry): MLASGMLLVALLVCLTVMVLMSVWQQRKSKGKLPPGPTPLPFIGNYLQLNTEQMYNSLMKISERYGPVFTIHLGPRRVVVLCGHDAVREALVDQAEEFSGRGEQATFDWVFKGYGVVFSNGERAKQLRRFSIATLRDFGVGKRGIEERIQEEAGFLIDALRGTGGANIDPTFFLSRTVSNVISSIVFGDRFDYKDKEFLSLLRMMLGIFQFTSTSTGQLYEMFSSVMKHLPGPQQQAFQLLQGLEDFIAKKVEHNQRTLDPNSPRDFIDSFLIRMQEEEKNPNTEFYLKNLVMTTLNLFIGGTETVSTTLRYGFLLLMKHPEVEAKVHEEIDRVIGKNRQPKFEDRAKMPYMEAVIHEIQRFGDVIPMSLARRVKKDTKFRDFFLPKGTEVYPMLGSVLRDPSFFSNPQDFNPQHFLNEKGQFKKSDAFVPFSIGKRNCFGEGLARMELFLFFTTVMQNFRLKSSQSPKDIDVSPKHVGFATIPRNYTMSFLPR

Cytochrome P450 4A11 = target: T3, Cytochrome P450 4A11 (Homo sapiens, UniProt Q02928); assay: Drug metabolism assessed as human recombinant CYP4A11-mediated 17-hydroexemestane formation rate per pmol of enzyme at 10 uM after 10 mins
T3 sequence (Q02928 whole entry): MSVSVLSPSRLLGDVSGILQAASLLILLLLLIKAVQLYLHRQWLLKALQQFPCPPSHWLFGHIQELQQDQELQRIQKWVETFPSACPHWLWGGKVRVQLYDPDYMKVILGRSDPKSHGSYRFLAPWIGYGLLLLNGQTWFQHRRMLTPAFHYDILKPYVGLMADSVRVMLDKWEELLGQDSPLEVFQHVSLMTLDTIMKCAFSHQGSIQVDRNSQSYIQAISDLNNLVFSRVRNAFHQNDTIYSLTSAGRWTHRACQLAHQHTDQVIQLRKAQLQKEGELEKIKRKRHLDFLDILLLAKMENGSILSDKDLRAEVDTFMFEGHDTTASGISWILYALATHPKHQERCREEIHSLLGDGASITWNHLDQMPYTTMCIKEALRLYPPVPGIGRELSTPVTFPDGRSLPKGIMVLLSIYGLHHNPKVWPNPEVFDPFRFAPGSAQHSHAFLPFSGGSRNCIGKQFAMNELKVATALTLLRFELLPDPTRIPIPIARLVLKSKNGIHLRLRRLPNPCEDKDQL

Cytochrome P450 3A4 = Cytochrome P450 3A4 (Homo sapiens, UniProt P08684); assay: Drug metabolism assessed as human recombinant CYP3A4-mediated 17-hydroexemestane formation rate per pmol of enzyme at 10 uM after 10 mins
Chain of Cytochrome P450 3A4 (P08684 whole entry): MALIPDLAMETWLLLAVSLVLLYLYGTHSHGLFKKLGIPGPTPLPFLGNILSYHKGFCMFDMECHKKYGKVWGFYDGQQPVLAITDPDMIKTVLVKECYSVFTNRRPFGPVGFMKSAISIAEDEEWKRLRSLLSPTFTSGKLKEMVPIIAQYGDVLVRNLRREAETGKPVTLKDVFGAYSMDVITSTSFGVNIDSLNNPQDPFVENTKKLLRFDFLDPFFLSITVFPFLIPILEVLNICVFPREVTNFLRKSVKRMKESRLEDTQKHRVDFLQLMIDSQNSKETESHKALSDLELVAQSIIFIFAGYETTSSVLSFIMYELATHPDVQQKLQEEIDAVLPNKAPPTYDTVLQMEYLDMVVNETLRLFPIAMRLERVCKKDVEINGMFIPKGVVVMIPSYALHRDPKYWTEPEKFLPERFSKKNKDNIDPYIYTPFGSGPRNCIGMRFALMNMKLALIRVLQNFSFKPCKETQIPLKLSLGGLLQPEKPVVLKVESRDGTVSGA

Cytochrome P450 2B6 [2] = target: T1, Cytochrome P450 2B6; assay: Drug metabolism assessed as human recombinant CYP2B6-mediated 17-hydroexemestane formation rate per pmol of enzyme at 10 uM after 10 mins
Cytochrome P450 2C9 = Cytochrome P450 2C9 (Homo sapiens, UniProt P11712); assay: Drug metabolism assessed as human recombinant CYP2C9-mediated 17-hydroexemestane formation rate per pmol of enzyme at 10 uM after 10 mins
Chain of Cytochrome P450 2C9 (P11712 whole entry): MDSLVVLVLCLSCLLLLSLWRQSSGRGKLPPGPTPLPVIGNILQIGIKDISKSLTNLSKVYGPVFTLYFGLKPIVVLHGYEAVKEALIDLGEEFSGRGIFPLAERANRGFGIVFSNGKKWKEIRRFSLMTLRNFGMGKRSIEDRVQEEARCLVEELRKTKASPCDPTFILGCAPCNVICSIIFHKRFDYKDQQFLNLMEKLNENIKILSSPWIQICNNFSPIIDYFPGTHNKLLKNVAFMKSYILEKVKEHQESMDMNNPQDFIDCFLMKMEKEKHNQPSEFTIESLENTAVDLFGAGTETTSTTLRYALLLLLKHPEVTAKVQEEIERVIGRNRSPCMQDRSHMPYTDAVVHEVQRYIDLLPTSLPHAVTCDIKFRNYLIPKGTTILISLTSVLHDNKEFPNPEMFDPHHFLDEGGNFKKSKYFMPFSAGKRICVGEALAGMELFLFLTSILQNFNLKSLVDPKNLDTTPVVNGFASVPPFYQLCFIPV

Liver microsome [3] = assay: Drug metabolism in human liver microsomes assessed as 17-hydroexemestane formation after 10 mins by Michaelis-Menten saturation curve analysis
Liver microsome [4] = assay: Drug metabolism in human liver microsomes assessed as 17-hydroexemestane formation at 10 uM after 10 mins by LC-MS/MS analysis
Aromatase = target: T4, Aromatase (Homo sapiens, UniProt P11511); assay: Drug metabolism assessed as human recombinant CYP19-mediated 17-hydroexemestane formation at 10 uM after 10 mins by Michaelis-Menten saturation curve analysis; conditions: recombinant enzyme
T4 sequence (P11511 whole entry): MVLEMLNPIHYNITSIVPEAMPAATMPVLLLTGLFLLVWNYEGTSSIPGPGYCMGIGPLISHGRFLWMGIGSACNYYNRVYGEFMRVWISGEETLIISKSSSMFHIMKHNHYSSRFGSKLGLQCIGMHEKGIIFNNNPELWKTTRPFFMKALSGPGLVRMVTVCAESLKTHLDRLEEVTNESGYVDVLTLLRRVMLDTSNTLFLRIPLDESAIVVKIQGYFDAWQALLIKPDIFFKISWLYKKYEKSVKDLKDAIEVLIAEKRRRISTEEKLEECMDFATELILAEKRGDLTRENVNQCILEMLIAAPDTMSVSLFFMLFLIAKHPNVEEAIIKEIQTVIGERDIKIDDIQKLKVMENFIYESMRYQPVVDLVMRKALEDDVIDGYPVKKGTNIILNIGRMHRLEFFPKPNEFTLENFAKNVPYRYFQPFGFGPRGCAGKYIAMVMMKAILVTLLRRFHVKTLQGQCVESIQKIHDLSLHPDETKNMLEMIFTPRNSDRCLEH

Structure (SMILES): C=C1C[C@@H]2[C@H](CC[C@]3(C)C(O)CC[C@@H]23)[C@@]2(C)C=CC(=O)C=C12 (stereo partly specified)
- Vmax(app) (Cytochrome P450 2B6 [1]): 3.9 pmol/mg/min
- Km (Cytochrome P450 2B6 [1]; read-out: Km(app)): 177 µM
- Drug metabolism (Cytochrome P450 2A6): 0.51 pmol/min
- Drug metabolism (Cytochrome P450 4A11): 0.48 pmol/min
- Drug metabolism (Cytochrome P450 3A4): 0.17 pmol/min
- Drug metabolism (Cytochrome P450 2B6 [2]): 0.3 pmol/min
- Drug metabolism (Cytochrome P450 2C9): metabolite_not_detected
- Vmax(app) (Liver microsome [3]): 222.4 pmol/mg/min
- Km (Liver microsome [3]; read-out: Km(app)): 13.7 µM
- Vmax(app) (Liver microsome [4]): 137.32 pmol/mg/min
- Drug metabolism (Aromatase): metabolite_detected
